Results on two compounds are retold here after patent publication US8674110B2, “Pyridylacetylenes for use as radiotracers and imaging agents” (Novartis AG, priority 2003, dated 2014).

One data set addresses T1, mGlu5 receptors (Rattus norvegicus, UniProt P31424).
T1 construct: from tissue; host or cells: rat brain regions and organs (in vivo tracer distribution)
Description: Organ and brain structure distribution (biodistribution) with and without blockade. Particulars: 30 min post-injection, individual values. The class given is in vivo, Sprague-Dawley rats. The method, then: Two groups of male adult Sprague-Dawley rats weighing 250-300 g are used for the biodistribution studies. The first group (n=3) serves as the control group and the second group (n=3) serves as the blockade group. Each animal received 250-300 pmol (0.6-40 MBq) of 3-(6-methyl-pyridin-2-ylethynyl)-cyclohex-2-enone O-[^11C-methyl]oxime via a lateral tail vein. The blockade group is co-injected with 2-methyl-6-((3-methoxyphenyl)ethynyl)-pyridine (1 mg/kg) whereas the control group (n=3) receives a corresponding volume of 0.9% NaCl. The animals are sacrificed 30 min post-injection. Organ or brain regions such as hippocampus, striatum, cortex and cerebellum are removed and measured in a gamma-counter. The tissue distribution is expressed as percentage of injected dose per gram wet tissue (% ID/g organ).
K1, K2, K3 are individual values for control animals. B1, B2, B3 are individual values for animals co-injected with 2-methyl-6-((3-methoxyphenyl)ethynyl)-pyridine.

In another data set the target is T2, human mGlu5 receptor (Homo sapiens, UniProt P41594).
T2 construct: expressed in transfected cells
The data set is described as follows: Ki/IC50 determination (binding assay), radioligand displacement. As for the experimental part:
In vitro, the affinity for the mGlu5 receptor is determined using a radioligand displacement technique as described by Gasparini et al, Biorg. Med. Chem. Lett. 2002, 12, 407-409.
In general terms: Displacement assays read how much labelled ligand stays bound in the presence of the test substance.

Where [1] appears, read: blockade animals B1-B3 co-injected with 2-methyl-6-((3-methoxyphenyl)ethynyl)-pyridine 1 mg/kg.
Where [2] appears, read: control animals K1-K3 (0.9% NaCl), i.v. tail vein.

“And” between values parts separate entries of the source, which are not always exact repeats. Identical values can stand only once.

T2 sequence (P41594 21-1180 isoform P41594-2 limits assumed): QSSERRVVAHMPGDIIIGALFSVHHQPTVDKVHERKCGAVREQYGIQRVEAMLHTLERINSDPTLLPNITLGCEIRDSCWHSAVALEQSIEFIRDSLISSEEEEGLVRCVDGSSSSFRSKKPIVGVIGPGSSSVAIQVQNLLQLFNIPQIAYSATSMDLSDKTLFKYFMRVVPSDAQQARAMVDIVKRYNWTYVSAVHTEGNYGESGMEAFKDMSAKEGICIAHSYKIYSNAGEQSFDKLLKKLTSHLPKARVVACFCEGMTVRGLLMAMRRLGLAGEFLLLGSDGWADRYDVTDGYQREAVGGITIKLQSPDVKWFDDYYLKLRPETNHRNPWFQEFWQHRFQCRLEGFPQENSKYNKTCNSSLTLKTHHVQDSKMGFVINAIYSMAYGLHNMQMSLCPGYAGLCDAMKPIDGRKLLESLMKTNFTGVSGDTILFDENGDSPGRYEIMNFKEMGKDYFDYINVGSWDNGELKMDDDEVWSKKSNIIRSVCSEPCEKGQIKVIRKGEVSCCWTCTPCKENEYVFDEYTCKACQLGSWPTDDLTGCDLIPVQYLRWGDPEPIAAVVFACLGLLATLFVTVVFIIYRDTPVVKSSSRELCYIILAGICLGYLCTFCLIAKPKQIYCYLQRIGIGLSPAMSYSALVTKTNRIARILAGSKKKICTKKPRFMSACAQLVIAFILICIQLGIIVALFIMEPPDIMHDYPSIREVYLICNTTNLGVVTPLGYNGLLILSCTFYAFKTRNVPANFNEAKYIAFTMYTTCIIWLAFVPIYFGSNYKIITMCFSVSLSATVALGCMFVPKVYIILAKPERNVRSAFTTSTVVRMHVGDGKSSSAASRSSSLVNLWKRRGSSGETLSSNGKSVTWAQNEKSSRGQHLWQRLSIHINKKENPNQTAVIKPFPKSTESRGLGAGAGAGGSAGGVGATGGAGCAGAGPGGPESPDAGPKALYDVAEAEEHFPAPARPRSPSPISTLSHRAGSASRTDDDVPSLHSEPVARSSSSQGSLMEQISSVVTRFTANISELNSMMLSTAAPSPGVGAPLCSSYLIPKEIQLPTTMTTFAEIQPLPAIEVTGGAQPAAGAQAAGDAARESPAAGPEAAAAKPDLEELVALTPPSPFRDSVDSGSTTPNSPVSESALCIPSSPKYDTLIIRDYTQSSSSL
T1 sequence (P31424 21-1203): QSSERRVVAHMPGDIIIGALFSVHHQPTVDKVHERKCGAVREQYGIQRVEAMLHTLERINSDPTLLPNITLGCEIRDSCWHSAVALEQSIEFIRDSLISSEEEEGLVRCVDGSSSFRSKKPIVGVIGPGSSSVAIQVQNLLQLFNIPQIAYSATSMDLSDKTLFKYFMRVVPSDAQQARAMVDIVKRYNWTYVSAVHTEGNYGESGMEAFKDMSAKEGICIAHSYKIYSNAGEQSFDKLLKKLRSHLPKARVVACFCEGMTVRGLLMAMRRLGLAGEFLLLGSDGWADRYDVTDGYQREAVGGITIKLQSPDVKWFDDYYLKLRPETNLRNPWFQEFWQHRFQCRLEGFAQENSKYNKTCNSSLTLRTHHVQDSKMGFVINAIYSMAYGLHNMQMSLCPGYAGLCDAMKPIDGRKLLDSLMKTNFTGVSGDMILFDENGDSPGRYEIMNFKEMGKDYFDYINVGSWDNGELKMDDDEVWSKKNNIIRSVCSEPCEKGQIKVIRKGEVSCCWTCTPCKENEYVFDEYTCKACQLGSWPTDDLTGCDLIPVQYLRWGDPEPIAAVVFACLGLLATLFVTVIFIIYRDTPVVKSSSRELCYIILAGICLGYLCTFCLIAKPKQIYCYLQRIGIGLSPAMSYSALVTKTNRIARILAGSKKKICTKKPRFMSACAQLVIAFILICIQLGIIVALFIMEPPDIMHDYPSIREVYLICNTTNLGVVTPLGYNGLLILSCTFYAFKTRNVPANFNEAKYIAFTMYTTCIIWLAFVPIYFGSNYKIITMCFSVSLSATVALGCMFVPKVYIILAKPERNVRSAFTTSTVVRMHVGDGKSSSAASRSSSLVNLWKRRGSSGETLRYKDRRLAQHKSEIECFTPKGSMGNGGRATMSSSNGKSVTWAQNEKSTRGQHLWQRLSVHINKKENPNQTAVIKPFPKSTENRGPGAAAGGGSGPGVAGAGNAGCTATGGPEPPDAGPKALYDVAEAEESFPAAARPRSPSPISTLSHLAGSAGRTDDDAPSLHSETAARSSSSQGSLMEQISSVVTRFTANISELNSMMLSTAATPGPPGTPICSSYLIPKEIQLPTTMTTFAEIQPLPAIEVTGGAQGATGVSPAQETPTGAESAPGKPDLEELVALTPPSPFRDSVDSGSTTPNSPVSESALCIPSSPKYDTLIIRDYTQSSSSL

On to `Cc1cccc(C#CC2=CC(=NO[11CH3])CCC2)n1` [Example 1, 3-(6-Methyl-pyridin-2-ylethynyl)-cyclohex-2-enone O-[^11C-methyl]-oxime], for which, at mGlu5 receptors (setting [1]), the “percentage of injected dose per gram wet tissue, Cerebellum” value was 0.04052 % ID/g organ and 0.03608 % ID/g organ and 0.03421 % ID/g organ; the “percentage of injected dose per gram wet tissue, Cortex” value was 0.04964 % ID/g organ and 0.05582 % ID/g organ and 0.05431 % ID/g organ; the “percentage of injected dose per gram wet tissue, Hippocampus” value is 0.05184 % ID/g organ and 0.06195 % ID/g organ and 0.05972 % ID/g organ; the “percentage of injected dose per gram wet tissue, Midbrain” value was 0.03876 % ID/g organ and 0.047 % ID/g organ and 0.04422 % ID/g organ. Besides, on mGlu5 receptors (setting [1]), the “percentage of injected dose per gram wet tissue, Restbrain” value is 0.03832 % ID/g organ and 0.04762 % ID/g organ and 0.04383 % ID/g organ; the “percentage of injected dose per gram wet tissue, Striatum” value is 0.06495 % ID/g organ and 0.07158 % ID/g organ and 0.06487 % ID/g organ; the “percentage of injected dose per gram wet tissue, Whole brain” value was 0.0458 % ID/g organ and 0.05118 % ID/g organ and 0.04951 % ID/g organ. For the same compound, at mGlu5 receptors (setting [2]), the “percentage of injected dose per gram wet tissue, Cerebellum” value is 0.03322 % ID/g organ and 0.03925 % ID/g organ and 0.03699 % ID/g organ; the “percentage of injected dose per gram wet tissue, Cortex” value is 0.1485 % ID/g organ and 0.1832 % ID/g organ and 0.1691 % ID/g organ; the “percentage of injected dose per gram wet tissue, Hippocampus” value is 0.1615 % ID/g organ and 0.2544 % ID/g organ and 0.2126 % ID/g organ; the “percentage of injected dose per gram wet tissue, Midbrain” value was 0.07703 % ID/g organ and 0.1056 % ID/g organ and 0.09091 % ID/g organ. In addition, at mGlu5 receptors (setting [2]), the “percentage of injected dose per gram wet tissue, Restbrain” value is 0.05519 % ID/g organ and 0.0652 % ID/g organ and 0.0607 % ID/g organ; the “percentage of injected dose per gram wet tissue, Striatum” value is 0.2256 % ID/g organ and 0.3069 % ID/g organ and 0.2816 % ID/g organ; the “percentage of injected dose per gram wet tissue, Whole brain” value is 0.1112 % ID/g organ and 0.1366 % ID/g organ and 0.13 % ID/g organ.

One may read the Ki as the equilibrium dissociation constant of an inhibitor or competing ligand from its target. For orientation: Hill coefficient means the slope factor of the fitted curve. As usually defined, the IC50 is the midpoint of a concentration-inhibition curve. For the compound `CON=C1C=C(C#Cc2cccc(C)n2)CCC1` [3-(6-methyl-pyridin-2-ylethynyl)-cyclohex-2-enone O-methyl-oxime], the inhibitory constant (Ki) on human mGlu5 receptor (calculated using the Cheng-Prusoff equation, radioligand concentration 2 nM) is 4 nM. Besides, the Hill coefficient at human mGlu5 receptor (displacement of [3H]-2-methyl-6-((3-methoxyphenyl)ethynyl)-pyridine, L-tk cell membranes, human mGlu5) stood at 1.08. Besides, at human mGlu5 receptor (membrane of L-tk cells stably expressing the human mGlu5 receptor, 95% confidence intervals: 6.0-10.0 nM, read-out: IC50 for the displacement of [3H]-2-methyl-6-((3-methoxyphenyl)ethynyl)-pyridine), the IC50 was determined as 8 nM.
